In BindingDB's records for PubMed 20126400 (University of Oklahoma, 2010):

Experiments:
Assay in all cases: Ray2010 Assay 74
[1] = molecular target: T1, 5-hydroxytryptamine receptor 1A (Homo sapiens, UniProt P08908)
T1 sequence (P08908 whole entry): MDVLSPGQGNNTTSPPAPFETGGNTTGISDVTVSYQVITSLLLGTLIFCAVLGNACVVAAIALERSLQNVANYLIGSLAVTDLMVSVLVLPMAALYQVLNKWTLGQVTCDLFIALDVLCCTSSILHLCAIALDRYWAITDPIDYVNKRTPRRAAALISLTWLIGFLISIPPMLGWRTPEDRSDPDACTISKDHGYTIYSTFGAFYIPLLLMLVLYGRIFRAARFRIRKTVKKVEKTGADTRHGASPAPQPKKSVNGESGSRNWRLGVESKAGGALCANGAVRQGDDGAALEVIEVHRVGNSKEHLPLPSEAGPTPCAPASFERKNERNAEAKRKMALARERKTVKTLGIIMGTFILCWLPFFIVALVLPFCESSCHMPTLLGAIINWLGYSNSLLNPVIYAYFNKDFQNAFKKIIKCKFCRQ
Text: (§1) Table S2 shows raw Ki data for the current study combined with data collected from the literature for the ten additional compounds.

Histamine H1 receptor = Histamine H1 receptor (Homo sapiens, UniProt P35367)
Text: as §1

[2] = molecular target: Sodium-dependent dopamine transporter (Homo sapiens, UniProt Q01959)
Text: as §1

[3] = molecular target: T2, Muscarinic acetylcholine receptor M5 (Homo sapiens, UniProt P08912)
T2 sequence (P08912 whole entry): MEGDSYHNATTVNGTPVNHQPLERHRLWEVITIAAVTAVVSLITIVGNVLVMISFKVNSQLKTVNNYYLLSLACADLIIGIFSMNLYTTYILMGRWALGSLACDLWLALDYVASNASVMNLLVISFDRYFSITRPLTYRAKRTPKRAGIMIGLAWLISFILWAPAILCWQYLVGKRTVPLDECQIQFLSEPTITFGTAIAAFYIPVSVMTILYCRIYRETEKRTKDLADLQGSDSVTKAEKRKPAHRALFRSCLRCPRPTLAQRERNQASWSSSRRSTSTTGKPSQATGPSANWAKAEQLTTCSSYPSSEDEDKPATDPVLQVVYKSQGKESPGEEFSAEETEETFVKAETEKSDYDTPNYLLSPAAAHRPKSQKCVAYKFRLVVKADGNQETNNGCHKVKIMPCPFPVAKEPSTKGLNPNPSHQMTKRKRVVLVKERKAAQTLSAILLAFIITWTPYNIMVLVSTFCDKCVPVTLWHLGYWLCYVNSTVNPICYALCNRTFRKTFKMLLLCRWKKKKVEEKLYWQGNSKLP
Text: as §1

D(2) dopamine receptor = D(2) dopamine receptor (Homo sapiens, UniProt P14416)
Text: as §1

Mu-type opioid receptor = Mu-type opioid receptor (Homo sapiens, UniProt P35372)
Text: as §1

[4] = molecular target: Beta-1 adrenergic receptor (Homo sapiens, UniProt P08588)
Text: as §1

[5] = molecular target: T3, Muscarinic acetylcholine receptor M2 (Homo sapiens, UniProt P08172)
T3 sequence (P08172 whole entry): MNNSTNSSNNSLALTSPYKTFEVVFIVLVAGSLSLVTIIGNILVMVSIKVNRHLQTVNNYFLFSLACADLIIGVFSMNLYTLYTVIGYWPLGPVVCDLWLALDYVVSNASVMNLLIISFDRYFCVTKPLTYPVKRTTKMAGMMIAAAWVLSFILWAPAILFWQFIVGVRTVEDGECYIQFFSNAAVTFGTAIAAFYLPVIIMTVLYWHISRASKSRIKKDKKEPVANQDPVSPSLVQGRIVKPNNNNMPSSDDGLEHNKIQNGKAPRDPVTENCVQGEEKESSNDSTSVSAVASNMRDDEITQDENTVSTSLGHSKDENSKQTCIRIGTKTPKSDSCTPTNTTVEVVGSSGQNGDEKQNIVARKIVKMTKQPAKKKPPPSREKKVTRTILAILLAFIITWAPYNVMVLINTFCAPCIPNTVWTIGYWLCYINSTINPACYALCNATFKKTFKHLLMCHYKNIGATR
Text: as §1

[6] = molecular target: 5-hydroxytryptamine receptor 2A (Homo sapiens, UniProt P28223)
Text: as §1

[7] = molecular target: T4, Muscarinic acetylcholine receptor M1 (Homo sapiens, UniProt P11229)
T4 sequence (P11229 whole entry): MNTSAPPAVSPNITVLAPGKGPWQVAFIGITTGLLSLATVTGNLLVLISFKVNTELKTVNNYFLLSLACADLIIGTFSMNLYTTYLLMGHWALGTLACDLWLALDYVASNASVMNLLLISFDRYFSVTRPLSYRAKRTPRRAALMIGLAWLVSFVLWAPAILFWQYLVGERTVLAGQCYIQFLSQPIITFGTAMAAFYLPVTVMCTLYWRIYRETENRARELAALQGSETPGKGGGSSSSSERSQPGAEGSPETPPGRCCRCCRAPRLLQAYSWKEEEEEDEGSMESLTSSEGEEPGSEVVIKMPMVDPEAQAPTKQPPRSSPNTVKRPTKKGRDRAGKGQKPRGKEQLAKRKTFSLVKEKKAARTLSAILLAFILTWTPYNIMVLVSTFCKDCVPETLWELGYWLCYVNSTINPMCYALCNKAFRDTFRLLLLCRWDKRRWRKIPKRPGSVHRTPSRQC
Text: as §1

[8] = molecular target: 5-hydroxytryptamine receptor 2B (Homo sapiens, UniProt P41595)
Text: as §1

D(1A) dopamine receptor = D(1A) dopamine receptor (Homo sapiens, UniProt P21728)
Text: as §1

[9] = molecular target: T5, Alpha-1B adrenergic receptor (Homo sapiens, UniProt P35368)
T5 sequence (P35368 whole entry): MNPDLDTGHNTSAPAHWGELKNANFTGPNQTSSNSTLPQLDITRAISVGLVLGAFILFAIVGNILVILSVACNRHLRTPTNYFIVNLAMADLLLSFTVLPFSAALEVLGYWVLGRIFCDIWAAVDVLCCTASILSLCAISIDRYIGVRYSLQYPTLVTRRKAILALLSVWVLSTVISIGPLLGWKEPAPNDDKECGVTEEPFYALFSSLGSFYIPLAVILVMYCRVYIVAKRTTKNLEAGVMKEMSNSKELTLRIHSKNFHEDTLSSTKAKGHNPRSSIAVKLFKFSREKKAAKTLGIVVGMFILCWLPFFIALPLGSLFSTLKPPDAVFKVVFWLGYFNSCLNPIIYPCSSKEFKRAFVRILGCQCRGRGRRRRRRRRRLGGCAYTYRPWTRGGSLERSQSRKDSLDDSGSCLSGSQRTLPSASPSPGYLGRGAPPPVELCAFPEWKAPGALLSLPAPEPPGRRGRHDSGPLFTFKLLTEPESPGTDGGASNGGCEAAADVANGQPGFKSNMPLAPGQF
Text: as §1

Sequence of Mu-type opioid receptor (P35372 whole entry): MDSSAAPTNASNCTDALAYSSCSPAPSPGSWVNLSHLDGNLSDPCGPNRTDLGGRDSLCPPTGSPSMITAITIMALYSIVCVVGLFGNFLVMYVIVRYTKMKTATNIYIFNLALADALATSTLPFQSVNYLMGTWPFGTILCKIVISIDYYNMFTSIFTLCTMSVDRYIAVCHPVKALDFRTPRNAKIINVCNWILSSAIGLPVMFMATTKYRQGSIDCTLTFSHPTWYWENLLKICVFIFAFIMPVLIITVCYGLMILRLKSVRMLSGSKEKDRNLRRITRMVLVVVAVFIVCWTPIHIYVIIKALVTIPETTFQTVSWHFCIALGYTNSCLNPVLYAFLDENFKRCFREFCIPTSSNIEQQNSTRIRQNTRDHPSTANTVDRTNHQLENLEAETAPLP
Sequence of Beta-1 adrenergic receptor (P08588 whole entry): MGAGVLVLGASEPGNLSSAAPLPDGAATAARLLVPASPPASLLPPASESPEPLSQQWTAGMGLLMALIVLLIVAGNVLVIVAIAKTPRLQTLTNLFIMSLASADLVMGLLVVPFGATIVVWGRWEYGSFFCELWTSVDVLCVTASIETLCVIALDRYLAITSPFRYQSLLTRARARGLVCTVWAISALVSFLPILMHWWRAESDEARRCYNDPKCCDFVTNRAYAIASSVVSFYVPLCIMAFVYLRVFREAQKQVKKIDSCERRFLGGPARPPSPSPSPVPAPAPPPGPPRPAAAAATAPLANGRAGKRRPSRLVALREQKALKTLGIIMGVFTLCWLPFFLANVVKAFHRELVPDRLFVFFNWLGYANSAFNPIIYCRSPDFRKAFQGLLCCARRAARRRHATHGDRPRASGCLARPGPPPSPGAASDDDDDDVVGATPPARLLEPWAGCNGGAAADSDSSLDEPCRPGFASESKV
Sequence of D(1A) dopamine receptor (P21728 whole entry): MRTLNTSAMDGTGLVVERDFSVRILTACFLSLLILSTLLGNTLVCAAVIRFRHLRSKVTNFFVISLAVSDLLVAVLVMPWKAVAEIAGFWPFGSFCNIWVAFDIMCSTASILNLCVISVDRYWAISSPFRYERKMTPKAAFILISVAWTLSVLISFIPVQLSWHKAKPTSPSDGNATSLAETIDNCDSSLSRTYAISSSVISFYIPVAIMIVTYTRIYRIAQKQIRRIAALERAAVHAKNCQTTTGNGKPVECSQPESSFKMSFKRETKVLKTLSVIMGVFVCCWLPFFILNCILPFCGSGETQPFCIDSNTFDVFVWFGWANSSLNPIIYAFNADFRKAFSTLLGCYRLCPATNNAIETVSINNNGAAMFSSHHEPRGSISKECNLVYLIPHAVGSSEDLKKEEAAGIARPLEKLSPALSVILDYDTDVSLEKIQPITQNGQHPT
Sequence of 5-hydroxytryptamine receptor 2A (P28223 whole entry): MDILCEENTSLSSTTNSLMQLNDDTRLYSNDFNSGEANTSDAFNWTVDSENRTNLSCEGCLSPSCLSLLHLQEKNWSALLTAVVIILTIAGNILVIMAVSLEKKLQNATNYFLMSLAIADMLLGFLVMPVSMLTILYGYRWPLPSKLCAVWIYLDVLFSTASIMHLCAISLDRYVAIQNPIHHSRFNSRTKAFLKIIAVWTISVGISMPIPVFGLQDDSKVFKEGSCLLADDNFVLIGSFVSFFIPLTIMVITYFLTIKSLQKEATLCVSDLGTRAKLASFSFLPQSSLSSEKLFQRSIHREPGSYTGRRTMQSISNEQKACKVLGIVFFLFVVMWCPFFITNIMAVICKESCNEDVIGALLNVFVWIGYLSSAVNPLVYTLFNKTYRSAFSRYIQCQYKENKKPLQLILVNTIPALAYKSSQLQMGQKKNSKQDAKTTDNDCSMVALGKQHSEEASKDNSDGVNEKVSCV
Sequence of Sodium-dependent dopamine transporter (Q01959 whole entry): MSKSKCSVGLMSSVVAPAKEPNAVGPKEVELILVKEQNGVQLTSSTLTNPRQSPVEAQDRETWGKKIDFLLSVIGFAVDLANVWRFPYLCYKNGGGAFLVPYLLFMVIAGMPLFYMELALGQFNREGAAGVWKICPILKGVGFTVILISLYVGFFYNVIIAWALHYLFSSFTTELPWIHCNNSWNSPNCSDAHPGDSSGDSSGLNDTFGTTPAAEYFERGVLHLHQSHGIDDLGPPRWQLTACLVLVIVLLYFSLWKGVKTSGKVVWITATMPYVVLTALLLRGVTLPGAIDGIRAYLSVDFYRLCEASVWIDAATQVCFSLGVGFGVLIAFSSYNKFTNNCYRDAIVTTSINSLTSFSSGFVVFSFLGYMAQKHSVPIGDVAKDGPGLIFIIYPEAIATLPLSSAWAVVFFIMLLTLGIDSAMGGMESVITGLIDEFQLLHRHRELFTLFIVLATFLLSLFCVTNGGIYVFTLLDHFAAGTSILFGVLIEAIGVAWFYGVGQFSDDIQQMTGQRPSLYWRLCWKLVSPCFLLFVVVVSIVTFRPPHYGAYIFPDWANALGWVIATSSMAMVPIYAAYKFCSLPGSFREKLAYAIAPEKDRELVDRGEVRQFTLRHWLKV
Sequence of D(2) dopamine receptor (P14416 whole entry): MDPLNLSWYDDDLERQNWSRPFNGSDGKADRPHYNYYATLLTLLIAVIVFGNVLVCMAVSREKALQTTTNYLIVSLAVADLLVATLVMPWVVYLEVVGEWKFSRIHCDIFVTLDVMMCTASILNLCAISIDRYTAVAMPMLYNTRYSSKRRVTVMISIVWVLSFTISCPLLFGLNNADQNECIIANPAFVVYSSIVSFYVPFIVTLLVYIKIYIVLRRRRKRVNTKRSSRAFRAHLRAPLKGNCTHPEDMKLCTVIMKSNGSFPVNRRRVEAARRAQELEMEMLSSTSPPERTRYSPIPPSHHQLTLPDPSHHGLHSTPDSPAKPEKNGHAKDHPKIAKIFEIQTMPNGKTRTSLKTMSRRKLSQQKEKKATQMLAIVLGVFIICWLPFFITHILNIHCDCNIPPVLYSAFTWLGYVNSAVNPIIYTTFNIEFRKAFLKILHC
Sequence of Histamine H1 receptor (P35367 whole entry): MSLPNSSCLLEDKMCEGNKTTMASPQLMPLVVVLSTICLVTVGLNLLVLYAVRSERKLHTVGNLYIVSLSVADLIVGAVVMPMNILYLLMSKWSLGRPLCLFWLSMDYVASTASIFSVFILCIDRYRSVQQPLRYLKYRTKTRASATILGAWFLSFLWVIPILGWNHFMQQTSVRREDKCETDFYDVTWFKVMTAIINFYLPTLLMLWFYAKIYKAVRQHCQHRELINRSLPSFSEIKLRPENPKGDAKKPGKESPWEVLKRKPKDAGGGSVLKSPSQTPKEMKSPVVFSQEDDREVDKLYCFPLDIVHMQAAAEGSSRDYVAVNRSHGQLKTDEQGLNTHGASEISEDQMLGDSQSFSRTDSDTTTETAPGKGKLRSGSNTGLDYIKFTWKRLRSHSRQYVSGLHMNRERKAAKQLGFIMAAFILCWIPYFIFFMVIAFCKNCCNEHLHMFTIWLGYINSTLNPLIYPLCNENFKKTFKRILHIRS
Sequence of 5-hydroxytryptamine receptor 2B (P41595 whole entry): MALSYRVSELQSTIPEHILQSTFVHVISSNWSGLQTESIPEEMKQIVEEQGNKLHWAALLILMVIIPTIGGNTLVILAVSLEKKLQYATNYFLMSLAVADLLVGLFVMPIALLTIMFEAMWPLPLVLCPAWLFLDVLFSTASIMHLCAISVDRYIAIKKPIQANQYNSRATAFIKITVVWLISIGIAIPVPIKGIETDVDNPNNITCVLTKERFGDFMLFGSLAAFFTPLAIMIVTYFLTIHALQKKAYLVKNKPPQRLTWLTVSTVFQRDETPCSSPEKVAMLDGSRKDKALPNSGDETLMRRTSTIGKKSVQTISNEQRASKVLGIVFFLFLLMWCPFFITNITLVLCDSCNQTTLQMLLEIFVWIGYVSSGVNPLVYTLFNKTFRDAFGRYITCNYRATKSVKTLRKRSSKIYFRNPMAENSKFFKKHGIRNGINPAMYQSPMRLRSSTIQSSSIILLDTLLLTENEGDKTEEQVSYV

| Compound | Ki [1] [µM] | Ki (Histamine H1 receptor) [µM] | Ki [2] [µM] | Ki [3] [µM] | Ki (D(2) dopamine receptor) [µM] | Ki (Mu-type opioid receptor) [µM] | Ki [4] [µM] | Ki [5] [µM] | Ki [6] [µM] | Ki [7] [µM] | Ki [8] [µM] | Ki (D(1A) dopamine receptor) [µM] | Ki [9] [µM] |
| --- | --- | --- | --- | --- | --- | --- | --- | --- | --- | --- | --- | --- | --- |
| CCOc1cc(OC)c(CC(C)N)cc1OC (stereo not drawn) | > 10 | > 10 | > 10 | > 10 | > 10 | > 10 | > 10 | > 10 | 3.95 | > 10 | 0.0645 | > 10 | > 10 |
| COc1ccc2[nH]cc(CCN(C)C(C)C)c2c1 [5-meo-mipt] | 0.0123 | 4.82 | > 10 | > 10 | > 10 | > 10 | > 10 | > 10 | 0.448 | > 10 | 0.0585 | > 10 | > 10 |
| CAS_82830-44-2::(2R)-1-(4-iodo-2,5-dimethoxyphenyl)propan-2-amine::DOI,(-)::US20250270173, Compound DOI | 2.22 | 1.76 | > 10 | 2.21 | > 10 | > 10 | 0.591 | 1.99 | 0.165 | 2.72 | 0.336 | 9.69 | > 10 |
| COC(=O)[C@@H]1C[C@H](OC(C)=O)C(=O)[C@H]2[C@@]1(C)CC[C@H]1C(=O)O[C@H](c3ccoc3)C[C@]21C [2S,4aR,6a(R,7R,9S,10aS,10bR)-9-(acetyloxy)-2-(furan-3-yl)dodecahydro-6a,10b-dimethyl-4,10-dioxo-2H-naphtho[2,1-c]pyran-7-carboxylic acid methyl ester] | > 10 | > 10 | > 10 | > 10 | > 10 |  | > 10 | > 10 | > 10 | > 10 | > 10 | > 10 | > 10 |
| COc1ccc2[nH]cc(CCN(C(C)C)C(C)C)c2c1 [5-meo-dipt] | 0.132 | > 10 | > 10 | > 10 | > 10 | > 10 | > 10 | > 10 |  | > 10 | 0.163 | > 10 | > 10 |
| CN(C)CCc1c[nH]c2cc(F)ccc12 [6-f-dmt] | 0.393 | 0.0466 | > 10 | > 10 | 0.61 | > 10 | > 10 | > 10 |  | > 10 | 0.0298 | 0.547 | > 10 |
| COc1cc(CC(C)N)c(OC)cc1C (stereo not drawn) [(+/-)2-(2,5-Dimethoxy-4-methyl-phenyl)-1-methyl-ethylamine] | 3.66 | > 10 | > 10 | > 10 | > 10 | > 10 | > 10 | > 10 | 0.507 | > 10 | 0.0117 | > 10 | > 10 |
